The test concerns L1210 leukemia ip in BDF1 mice, survival T/C. Kind of test: NCI In Vivo Anticancer Drug Screen. Data for tumor model L1210 Leukemia (intraperitoneal) in B6D2F1 (BDF1) mice. The note with it: higher = longer survival. In a few lines: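 Survival endpoint. Drug-treated group vs vehicle group, expressed as T divided by C. Tumor passaged by transplantation.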
The mark [1] stands for this setting: endpoint: mean survival time, dose: 100.0 mg/kg/injection, schedule: Q01DX001 (ip), vehicle: Klucel (hydroxypropylcellulose) (HPC).
[2] abbreviates: endpoint: mean survival time, dose: 100.0 mg/kg/injection, schedule: Q04DX003 (ip), vehicle: Klucel (hydroxypropylcellulose) (HPC).
Where [3] appears, read: endpoint: mean survival time, dose: 200.0 mg/kg/injection, schedule: Q01DX001 (ip), vehicle: Klucel (hydroxypropylcellulose) (HPC).
Where [4] appears, read: endpoint: mean survival time, dose: 200.0 mg/kg/injection, schedule: Q04DX003 (ip), vehicle: Klucel (hydroxypropylcellulose) (HPC).
The mark [5] stands for this setting: endpoint: mean survival time, dose: 400.0 mg/kg/injection, schedule: Q01DX001 (ip), vehicle: Klucel (hydroxypropylcellulose) (HPC).

Several values for one entry are separate records, joined by “and”; a condition that tells them apart may be missing. Equal values may be shown once. Toxic doses and inconclusive results are not listed.

Our source for the T/C values is PubChem BioAssay AID248 (DTP/NCI, 2004).

For `O=[N+]([O-])c1cccc2cncc(Br)c12`, the T/C runs as follows: (endpoint: mean survival time, dose: 100.0 mg/kg/injection, schedule: Q01DX001 (ip), vehicle: other) 95 % of control; (endpoint: mean survival time, dose: 200.0 mg/kg/injection, schedule: Q01DX001 (ip), vehicle: other) 106 % of control; (endpoint: mean survival time, dose: 400.0 mg/kg/injection, schedule: Q01DX001 (ip), vehicle: other) 104 % of control.

Take `COc1ccc2c(c1C)CCC1(COC(C)=O)CC(C)(O)C(O)CC21` (stereo unspecified): the T/C runs as follows: (endpoint: mean survival time, dose: 100.0 mg/kg/injection, schedule: Q01DX009 (ip), vehicle: saline sonified) 96 % of control; (endpoint: mean survival time, dose: 200.0 mg/kg/injection, schedule: Q01DX009 (ip), vehicle: saline sonified) 94 % of control; (endpoint: mean survival time, dose: 400.0 mg/kg/injection, schedule: Q01DX009 (ip), vehicle: saline sonified) 93 % of control.

As for `O=C(O)C1CCC(CC2CCC2)CC1` (stereo unspecified), the T/C was 95 % of control under setting [1]; 98 % of control under setting [2]; 100 % of control under setting [3]; 98 % of control under setting [4]; 92 % of control under setting [5]; 95 % of control (endpoint: mean survival time, dose: 400.0 mg/kg/injection, schedule: Q04DX003 (ip), vehicle: Klucel (hydroxypropylcellulose) (HPC)).

`COc1ccc(COC(=O)c2cc([N+](=O)[O-])cc([N+](=O)[O-])c2)cc1`: the T/C runs as follows: (endpoint: mean survival time, dose: 100.0 mg/kg/injection, schedule: Q01DX001 (ip), vehicle: saline with Tween-80) 95 % of control; (endpoint: mean survival time, dose: 200.0 mg/kg/injection, schedule: Q01DX001 (ip), vehicle: saline with Tween-80) 100 % of control; (endpoint: mean survival time, dose: 400.0 mg/kg/injection, schedule: Q01DX001 (ip), vehicle: saline with Tween-80) 92 % of control.

On to `OCCC1CNCCN1.[Cl][Pd]([Cl])([Cl])[Cl]` (stereo unspecified), for which the T/C runs as follows: (endpoint: mean survival time, dose: 100.0 mg/kg/injection, schedule: Q01DX001 (ip), vehicle: DMSO) 98 % of control; (endpoint: mean survival time, dose: 200.0 mg/kg/injection, schedule: Q01DX001 (ip), vehicle: DMSO) 91 % of control.

On to `CC(C)[C@]12O[C@H]1[C@@H]1O[C@]13[C@]1(O[C@H]1C[C@H]1C4=C(C(=O)OC4)[C@@H](O)C[C@@]13C)[C@@H]2O`, for which the T/C is 105 % of control (endpoint: mean survival time, dose: 2.4 micrograms/kg/injection, schedule: Q01DX009 (oral), vehicle: Klucel (hydroxypropylcellulose) (HPC)); 102 % of control (endpoint: mean survival time, dose: 4.8 micrograms/kg/injection, schedule: Q01DX009 (oral), vehicle: Klucel (hydroxypropylcellulose) (HPC)); 101 % of control (endpoint: mean survival time, dose: 9.5 micrograms/kg/injection, schedule: Q01DX009 (oral), vehicle: Klucel (hydroxypropylcellulose) (HPC)); 94 % of control and 111 % of control (endpoint: mean survival time, dose: 13.0 micrograms/kg/injection, schedule: Q01DX009 (ip), vehicle: saline); 116 % of control (endpoint: mean survival time, dose: 19.0 micrograms/kg/injection, schedule: Q01DX009 (oral), vehicle: Klucel (hydroxypropylcellulose) (HPC)); 108 % of control and 110 % of control (endpoint: mean survival time, dose: 25.0 micrograms/kg/injection, schedule: Q01DX009 (ip), vehicle: saline). The T/C was 107 % of control (endpoint: mean survival time, dose: 38.0 micrograms/kg/injection, schedule: Q01DX009 (oral), vehicle: Klucel (hydroxypropylcellulose) (HPC)); 103 % of control (endpoint: mean survival time, dose: 38.0 micrograms/kg/injection, schedule: Q01DX009 (oral), vehicle: saline + alcohol); 150 % of control and 159 % of control (endpoint: mean survival time, dose: 100.0 micrograms/kg/injection, schedule: Q01DX009 (ip), vehicle: saline); 198 % of control (endpoint: mean survival time, dose: 200.0 micrograms/kg/injection, schedule: Q01DX009 (ip), vehicle: saline); 113 % of control (endpoint: median survival time, dose: 0.06 mg/kg/injection, schedule: Q01DX009 (ip), vehicle: saline + alcohol); 114 % of control and 124 % of control (endpoint: median survival time, dose: 0.06 mg/kg/injection, schedule: Q01DX009 (ip), vehicle: saline with Tween-80). Also, the T/C is 102 % of control (endpoint: median survival time, dose: 0.06 mg/kg/injection, schedule: Q01DX009 (sc), vehicle: saline + alcohol); 98 % of control (endpoint: median survival time, dose: 0.06 mg/kg/injection, schedule: Q04DX003 (ip), vehicle: saline + alcohol); 107 % of control (endpoint: median survival time, dose: 0.12 mg/kg/injection, schedule: Q01DX009 (sc), vehicle: saline + alcohol); 106 % of control (endpoint: median survival time, dose: 0.12 mg/kg/injection, schedule: Q04DX003 (ip), vehicle: saline + alcohol); 102 % of control (endpoint: median survival time, dose: 0.12 mg/kg/injection, schedule: Q08DX002 (ip), vehicle: saline + alcohol); 156 % of control (endpoint: median survival time, dose: 0.13 mg/kg/injection, schedule: Q01DX009 (ip), vehicle: saline + alcohol). The T/C runs as follows: (endpoint: median survival time, dose: 0.13 mg/kg/injection, schedule: Q01DX009 (oral), vehicle: saline + alcohol) 100 % of control and 120 % of control; (endpoint: median survival time, dose: 0.25 mg/kg/injection, schedule: Q01DX001 (ip), vehicle: saline + alcohol) 102 % of control; (endpoint: median survival time, dose: 0.25 mg/kg/injection, schedule: Q01DX009 (ip), vehicle: saline + alcohol) 178 % of control and 195 % of control; (endpoint: median survival time, dose: 0.25 mg/kg/injection, schedule: Q01DX009 (ip), vehicle: saline with Tween-80) 185 % of control and 202 % of control; (endpoint: median survival time, dose: 0.25 mg/kg/injection, schedule: Q01DX009 (sc), vehicle: saline + alcohol) 151 % of control; (endpoint: median survival time, dose: 0.25 mg/kg/injection, schedule: Q04DX003 (ip), vehicle: saline + alcohol) 107 % of control. For the same compound, the T/C is, setting by setting: (endpoint: median survival time, dose: 0.25 mg/kg/injection, schedule: Q08DX002 (ip), vehicle: saline + alcohol) 109 % of control; (endpoint: median survival time, dose: 0.5 mg/kg/injection, schedule: Q01DX001 (ip), vehicle: saline + alcohol) 113 % of control; (endpoint: median survival time, dose: 0.5 mg/kg/injection, schedule: Q01DX009 (ip), vehicle: saline + alcohol) 95 % of control; (endpoint: median survival time, dose: 0.5 mg/kg/injection, schedule: Q04DX003 (ip), vehicle: saline + alcohol) 113 % of control; (endpoint: median survival time, dose: 0.5 mg/kg/injection, schedule: Q08DX002 (ip), vehicle: saline + alcohol) 114 % of control; (endpoint: median survival time, dose: 8.0 micrograms/kg/injection, schedule: Q03HX024 (ip), vehicle: saline + alcohol) 104 % of control. Besides, the T/C (endpoint: median survival time, dose: 8.0 micrograms/kg/injection, schedule: Q03HX024 (sc), vehicle: saline + alcohol) was 94 % of control; the T/C (endpoint: median survival time, dose: 15.6 micrograms/kg/injection, schedule: Q03HX024 (sc), vehicle: saline + alcohol) is 98 % of control; the T/C (endpoint: median survival time, dose: 16.0 micrograms/kg/injection, schedule: Q03HX024 (oral), vehicle: saline + alcohol) is 98 % of control and 101 % of control; the T/C (endpoint: median survival time, dose: 31.2 micrograms/kg/injection, schedule: Q03HX008 (ip), vehicle: saline + alcohol) was 117 % of control; the T/C (endpoint: median survival time, dose: 31.2 micrograms/kg/injection, schedule: Q03HX024 (ip), vehicle: saline + alcohol) was 157 % of control; the T/C (endpoint: median survival time, dose: 31.2 micrograms/kg/injection, schedule: Q03HX024 (sc), vehicle: saline + alcohol) is 103 % of control. The T/C was 110 % of control (endpoint: median survival time, dose: 31.3 micrograms/kg/injection, schedule: Q03HX024 (oral), vehicle: saline + alcohol); 162 % of control (endpoint: median survival time, dose: 62.5 micrograms/kg/injection, schedule: Q03HX024 (ip), vehicle: saline + alcohol); 165 % of control (endpoint: median survival time, dose: 62.5 micrograms/kg/injection, schedule: Q03HX024 (sc), vehicle: saline + alcohol).

In the case of `CCC(Cl)COP(=O)(CC(Cl)CC)OC(C(C)C)P(=O)(OCC(Cl)CC)OCC(Cl)CC` (stereo unspecified), the T/C was 108 % of control under setting [1], 101 % of control under setting [3] and 101 % of control under setting [5].

As for `O=CNc1ccc(Br)cc1`, the T/C reads like this: (endpoint: mean survival time, dose: 50.0 mg/kg/injection, schedule: Q04DX003 (ip), vehicle: Klucel (hydroxypropylcellulose) (HPC)) 97 % of control; (endpoint: mean survival time, dose: 100.0 mg/kg/injection, schedule: Q01DX009 (ip), vehicle: Klucel (hydroxypropylcellulose) (HPC)) 98 % of control; under setting [2], 97 % of control; (endpoint: mean survival time, dose: 200.0 mg/kg/injection, schedule: Q01DX009 (ip), vehicle: Klucel (hydroxypropylcellulose) (HPC)) 98 % of control; under setting [4], 100 % of control.

For the compound `OCC1(CO)CCC=CO1`, the T/C was 113 % of control (endpoint: mean survival time, dose: 50.0 mg/kg/injection, schedule: Q01DX001 (ip), vehicle: carboxymethylcellulose (CMC)); 100 % of control (endpoint: mean survival time, dose: 100.0 mg/kg/injection, schedule: Q01DX001 (ip), vehicle: carboxymethylcellulose (CMC)); 100 % of control (endpoint: mean survival time, dose: 200.0 mg/kg/injection, schedule: Q01DX001 (ip), vehicle: carboxymethylcellulose (CMC)); 97 % of control (endpoint: mean survival time, dose: 400.0 mg/kg/injection, schedule: Q01DX001 (ip), vehicle: carboxymethylcellulose (CMC)).

As to `CCCCCCCCCCCCCCCC[N+](C)(C)Cc1ccccc1`, the T/C by setting is: (endpoint: mean survival time, dose: 0.5 mg/kg/injection, schedule: Q04DX002 (ip), vehicle: Klucel (hydroxypropylcellulose) (HPC)) 98 % of control; (endpoint: mean survival time, dose: 1.0 mg/kg/injection, schedule: Q04DX002 (ip), vehicle: Klucel (hydroxypropylcellulose) (HPC)) 103 % of control; (endpoint: mean survival time, dose: 2.0 mg/kg/injection, schedule: Q04DX002 (ip), vehicle: Klucel (hydroxypropylcellulose) (HPC)) 103 % of control.
